Assays:
[1] = tested on: PC-3; assay: Cox/SDH ratio assay in PC-3 cells; type: cell-based; conditions: Cellular assays (MP-Nuc); concentration giving Cox/SDH ratio <0.5, PC-3 cells
[2] = tested on: HepG2; assay: Cox/SDH ratio assay in HepG2 cells; type: cell-based; conditions: Cellular assays (MP-Nuc); concentration giving Cox/SDH ratio <0.5, HepG2 cells
[3] = tested on: HRV86; assay: HRV cytopathic effect (CPE) assay; type: cell-based; conditions: Human rhinovirus sp., H1-HeLa cells, 72 h at 33° C., CellTiter-Glo, read-out: Activity on HRV strains and other viruses: HRV86
Protocol: (§1) HRV Cytopathic Effect (CPE) Assay.
(§2) Compounds were serially diluted in DMSO in half-logarithmic steps starting from 5 mM. Of each dilution, 0.5 μL were transferred to the assay plates. H1-HeLa cells were added to the assay-ready compound plates in 45 μL DMEM supplemented with 0.1% BSA (Gibco, 15260), 1× penicillin/streptomycin solution (CellGro/Mediatech, Manassas, Va.; 30-002-CI), and 1× non-essential amino acids (CellGro; 25-025-CI) at 5000 cells/well into triplicate 384-well plates and incubated at 33° C. for 6 hours. Control wells included DMSO alone (100% inhibition) and DMSO plus virus (0% inhibition). After 6 h incubation at 33° C., 5 μL of human rhinovirus stock was added at an MOI that effectively kills 99% of cells within 72 hours. Plates were then incubated for 72 h at 33° C. Cell viability was determined using the CellTiter-Glo® Luminescent Cell Viability Assay (Promega, G7573) according to the manufacturer's protocol and a POLARstar Omega Luminometer (BMG Labtech).

[4] = tested on: HRV14; assay: HRV cytopathic effect (CPE) assay; type: cell-based; conditions: Human rhinovirus sp., H1-HeLa cells, 72 h at 33° C., CellTiter-Glo, read-out: Activity on HRV strains and other viruses: HRV14
Protocol: as §1, §2

[5] = tested on: HRV10; assay: HRV cytopathic effect (CPE) assay; type: cell-based; conditions: Human rhinovirus sp., H1-HeLa cells, 72 h at 33° C., CellTiter-Glo, read-out: Activity on HRV strains and other viruses: HRV10
Protocol: as §1, §2

[6] = tested on: HRV29; assay: HRV cytopathic effect (CPE) assay; type: cell-based; conditions: Human rhinovirus sp., H1-HeLa cells, 72 h at 33° C., CellTiter-Glo, read-out: Activity on HRV strains and other viruses: HRV29
Protocol: as §1, §2

[7] = tested on: HRV16; assay: HRV cytopathic effect (CPE) assay; type: cell-based; conditions: Human rhinovirus sp., H1-HeLa cells, 72 h at 33° C., CellTiter-Glo, read-out: Activity on HRV strains and other viruses: HRV16
Protocol: as §1, §2

[8] = tested on: HRV39; assay: HRV cytopathic effect (CPE) assay; type: cell-based; conditions: Human rhinovirus sp., H1-HeLa cells, 72 h at 33° C., CellTiter-Glo, read-out: Activity on HRV strains and other viruses: HRV39
Protocol: as §1, §2

[9] = tested on: MT4; assay: MT4 cytotoxicity assay; type: cell-based; conditions: N = 2; 3 or 5 days at 37° C., CellTiter-Glo
Protocol: (§3) MT4 and PC3 Cytotoxicity Assay. Compounds were serially diluted in DMSO in half-logarithmic steps starting from 10 mM. 0.5 μL of serially diluted compound was transferred to the assay plates (Greiner cat#781080). Cells were added to the assay-ready compound plates in 50 μL of RPMI 1640 medium supplemented with 10% FBS (NCS Lot OS-161071), 1× penicillin/streptomycin solution (CellGro/Mediatech, Manassas, Va.; 30-002-CI), and incubated at 37° C. for 3 or 5 days. Control wells included DMSO alone (100% inhibition). Cell viability was determined using the CellTiter-Glo® Luminescent Cell Viability Assay (Promega, G7573) according to the manufacturer's protocol and a POLARstar Omega Luminometer (BMG Labtech).

[10] = tested on: HRV15 (c-type); assay: HRV replicon assay (Group C replicon); type: cell-based; conditions: Human rhinovirus sp., HRV15, H1-HeLa, read-out: Activity on HRV strains and other viruses: HRV15 (c-type)
Protocol: This assay was based on the Group C replicon previously described (Mello et al, Antimicrobial Agents and Chemotherapy, 2014) with the modification that the P1 region was replaced with the cDNA encoding Nanoluciferase (Promega Corporation, Madiso, Wis.) Compounds were serially diluted in DMSO in half-logarithmic steps starting from 5 mM. Of each dilution, 0.5 μL were transferred to the assay plates. H1-HeLa cells were trypsinized, washed twice with ice-cold OptiMem® Gibco, 31985), resuspended at 1.5×10^7 cells/ml in OptiMem®, and stored on ice. A total of 6×10^6 cells were electroporated (270 V, 950 μF, ∞ resistance) with 25 ng of in vitro-transcribed RNA and allowed to rest on ice for 10 min. Electroporated cells were then diluted DMEM supplemented with 0.1% BSA (Gibco, 15260), 1× penicillin/streptomycin solution (CellGro/Mediatech, Manassas, Va.; 30-002-CI) to a final concentration 4×10^5 cells/ml. 50 μl of cells were then added to the compounds then incubated for […] at 33° C. Luciferase signal was then measured after 48 h using the NanoGlo® Detection Kit Assay (Promega, N1150) according to the manufacturer's protocol and a POLARstar Omega Luminometer (BMG Labtech).

[11] = tested on: Chikungunya virus; assay: Activity on Chikungunya virus; type: cell-based; conditions: read-out: Activity on HRV strains and other viruses: Chikungunya virus
[12] = tested on: Dengue virus (PBMCs); assay: Activity on Dengue virus in PBMCs; type: cell-based; conditions: PBMC, read-out: Activity on HRV strains and other viruses: Dengue virus (PBMCs)
[13] = tested on: PC3; assay: PC3 cytotoxicity assay; type: cell-based; conditions: 3 or 5 days at 37° C., CellTiter-Glo
Protocol: as §3

[14] = tested on: HepG2; assay: Cytotoxicity (CC50 assay) in HepG2; type: cell-based; conditions: N = 7+; CC50, 72 hours, Cell-Titer Glo
Protocol: (§4) Cytotoxicity (CC50 Assay) in HepG2 & K562 White TC grade Greiner 384-well assay plates were stamped with 0.5 ul of compound in 90% DMSO/10% water. HepG2 cells were trypsinized and collected into 50 ml falcon tube. K562 suspension cells were collected in 50 ml falcon tube. Both tubes containing cells were spun in benchtop centrifuge at 1200 rpm for 5 mins. The supernatant was discarded and the cell pellet was re-suspended in fresh culture media (HepG2: DMEM:F12 mix+10% FBS+1% Pen/Strep & K562: IMDM+10% FBS+1% Pen-Strep). Cells were counted using a hemocytometer and cells were diluted to a working suspension of 50,000 cells/ml for HepG2, and 20,000 cells/ml for K562. 50 ul of cells suspension was added to each well of 384-assay plate. Assay plates were incubated at 37° C., 5% CO2, 90% humidity incubator for 72 hours. Assay plates were then treated with 25 ul of Promega's Cell-Titer Glo® reagent, and incubated at room temperature for 10 mins. Plates were read on PolarStar-Omega using the Luminescence setting and a Gain of 3300.

[15] = tested on: K562; assay: Cytotoxicity (CC50 assay) in K562; type: cell-based; conditions: N = 3; CC50, 72 hours, Cell-Titer Glo
Protocol: as §4

[16] = molecular target: T1, Human Mitochondrial RNA polymerase (POLRMT) (Homo sapiens, UniProt O00411); assay: Human mitochondrial RNA polymerase single nucleotide incorporation assay; type: biochemical; conditions: 500 μM nucleoside triphosphate, 5 min at RT
T1 construct: Purified full length POLRMT (Enzymax, USA); purchased Enzymax
Protocol: Human Mitochondrial RNA Polymerase Assay.
Human mitochondrial RNA polymerase (POLRMT) single nucleotide Incorporation assay was adapted from Arnold et al. (Sensitivity of mitochondrial transcription and resistance of RNA polymerase II dependent nuclear transcription to antiviral ribonucleosides. PloS Pathogen 8(11):e1003030.). Briefly, elongation complexes were formed by incubating 500 nM POLRMT with 250 nM annealed DNA template/RNA primer duplex, in assay buffer (25 mM Tris-HCl, pH 8, 50 mM KCl, 10 mM MgCl2, 1 mM dithiothreitol, 0.2 U/μL RNasin) for 1.5 min at room temperature (RT), followed by rapid mixing with 500 μM nucleoside triphosphate substrate or inhibitor. Purified full length POLRMT (Enzymax, USA) was stored in 10 mM Tris-HCl (pH 8.0), 1 mM DTT, 100 mM NaCl and 20% glycerol. The volume of POLRMT added to any reaction was always less than or equal to one-tenth the total volume. Primer-template consisted of a 5′-FAM labeled […] RNA oligonucleotide primer SEQ. ID. NO. 2 (5′-UUUUGCCGCGCC-3′) annealed to the appropriate 18-mer DNA template to allow single addition of A, C, G or U ribonucleotide (Arnold et al. 2012). […] Electrophoresis was performed in 1×TBE buffer at 600 V. Gels were visualized with a Typhoon Imager under fluorescence detection mode and quantified with the Image Quant TL Software (GE Healthcare, Piscataway, N.J.). […]

T1 sequence (O00411 42-1230): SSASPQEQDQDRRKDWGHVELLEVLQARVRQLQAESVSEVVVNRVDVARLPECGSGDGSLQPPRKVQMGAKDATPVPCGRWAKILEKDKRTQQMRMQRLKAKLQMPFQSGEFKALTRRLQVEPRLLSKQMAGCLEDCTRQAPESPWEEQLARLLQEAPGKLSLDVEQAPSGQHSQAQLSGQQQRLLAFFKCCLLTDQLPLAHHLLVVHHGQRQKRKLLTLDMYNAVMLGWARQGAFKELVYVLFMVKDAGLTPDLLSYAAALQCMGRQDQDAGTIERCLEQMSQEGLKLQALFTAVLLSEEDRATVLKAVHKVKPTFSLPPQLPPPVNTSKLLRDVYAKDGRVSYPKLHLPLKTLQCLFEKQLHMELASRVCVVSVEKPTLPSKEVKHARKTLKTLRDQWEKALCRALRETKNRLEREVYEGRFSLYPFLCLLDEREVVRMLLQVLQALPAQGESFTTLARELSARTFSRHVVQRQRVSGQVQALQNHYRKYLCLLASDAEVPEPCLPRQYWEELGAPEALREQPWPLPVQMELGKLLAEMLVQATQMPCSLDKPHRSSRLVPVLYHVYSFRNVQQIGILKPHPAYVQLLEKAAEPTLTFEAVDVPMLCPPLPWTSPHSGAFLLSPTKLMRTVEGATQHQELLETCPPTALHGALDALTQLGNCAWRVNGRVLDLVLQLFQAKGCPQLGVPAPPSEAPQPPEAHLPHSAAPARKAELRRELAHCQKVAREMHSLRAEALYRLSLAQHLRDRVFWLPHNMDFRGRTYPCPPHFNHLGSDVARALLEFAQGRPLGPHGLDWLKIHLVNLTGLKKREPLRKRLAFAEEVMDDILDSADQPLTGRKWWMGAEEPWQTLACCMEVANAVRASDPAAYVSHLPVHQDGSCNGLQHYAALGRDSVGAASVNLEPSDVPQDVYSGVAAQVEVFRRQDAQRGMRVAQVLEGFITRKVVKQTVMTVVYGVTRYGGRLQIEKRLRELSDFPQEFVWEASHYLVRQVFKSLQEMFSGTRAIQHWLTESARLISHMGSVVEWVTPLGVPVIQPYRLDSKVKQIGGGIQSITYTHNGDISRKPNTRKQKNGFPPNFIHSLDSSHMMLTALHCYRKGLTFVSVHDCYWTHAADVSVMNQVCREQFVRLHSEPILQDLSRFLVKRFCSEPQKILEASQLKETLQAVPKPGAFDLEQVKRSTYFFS

For `[N-]=[N+]=N[C@]1(CO)O[C@@H](n2ccc(N)nc2=O)[C@H](O)[C@@H]1O` [4′-Azido cytidine, 4′-azido-cytidine, reference compound], which “PC-3 Cox/SDH ratio <0.5” value [1] is on record?
The value was 25 µM.

What about the “HepG2 Cox/SDH ratio <0.5” value [2] of the same compound?
The value was 200 µM.

How did the EC50 [3] turn out when `CC#C[C@]1(O)[C@H](n2ccc3c(N)ncnc32)O[C@](F)(COP(=O)(OCOC(=O)OC(C)C)OCOC(=O)OC(C)C)[C@H]1O` [Example 2, ((2S,3S,4R,5R)-5-(4-amino-7H-pyrrolo[2,3-d]pyrimidin-7-yl)-2-fluoro-3,4-dihydroxy-4-(prop-1-yn-1-yl)tetrahydrofuran-2-yl)methyl bis(((1-isopropoxycarbonyl)oxy)methyl) phosphate] was run?
Its EC50 is 0.4 µM.

And the EC50 [4]?
The EC50 was 0.7 µM.

What about the EC50 [5] of the same compound?
The EC50 was 0.8 µM.

And the EC50 [6]?
The EC50 was 0.7 µM.

What about the EC50 [7] of the same compound?
The EC50 was 0.6 µM.

What about the EC50 [8] of the same compound?
The EC50 was 0.6 µM.

And the “Cytotoxicity Assay Results: MT4” value [9]?
Its value is >100 µM.

What about the “PC-3 Cox/SDH ratio <0.5” value [1] of the same compound?
The value was >200 µM.

What about the “HepG2 Cox/SDH ratio <0.5” value [2] of the same compound?
The value was >200 µM.

And the EC50 [10]?
The EC50 was 0.7 µM.

And the EC50 [11]?
Its EC50 is 1 µM.

And the EC50 [12]?
The EC50 was 2.05 µM.

And the “Cytotoxicity Assay Results: PC3” value [13]?
Its value is >200 µM.

And the “Cytotoxicity Assay Results: HepG2” value [14]?
The value was >100 µM.

What about the “Cytotoxicity Assay Results: K562” value [15] of the same compound?
The value was >100 µM.

How did the “Human Mitochondrial RNA polymerase incorporation” value [16] turn out when `CC#C[C@]1(O)[C@H](n2ccc3c(N)ncnc32)O[C@](F)(COP(=O)(O)OP(=O)(O)OP(=O)(O)O)[C@H]1O` [Example 3] was run?
The value was 1.9% (Examples).

With `C[C@@]1(F)[C@H](O)[C@@H](COP(=O)(O)OP(=O)(O)OP(=O)(O)O)O[C@H]1n1ccc(=O)[nH]c1=O` [Sofosbuvir TP, reference compound] as the compound, how does the “Human Mitochondrial RNA polymerase incorporation” value [16] read?
Its value is 1.9% (Sofosbuvir TP).

From patent US9988416B2, “Alkynyl nucleoside analogs as inhibitors of human rhinovirus” (NOVARTIS AG, priority 2016, dated 2018)
